From patent US7183415B2, “Quinoline compound” (Takeda Pharmaceutical Company Limited, priority 2001, dated 2007)

target: T1, SLC-1 expression CHO cell membrane fraction (MCH receptor) (UniProt Q99705); assay: Antagonistic activity of test compound using GTP γ S binding assay; assay type: biochemical, human/rat; details: inhibition of MCH-stimulated [35S]-GTPγS binding, 25° C., 1 hr, read-out: Inhibitory activity (IC50: nM)
T1 construct: full-length coding regions in pAKKO-111H
Experimental: Using human SLC-1 expression CHO cell clone 57 obtained in Reference Example 1-10 and rat SLC-1 expression CHO cell clone 44 obtained in Reference Example 1-4, membrane fractions were prepared by the following method. In phosphate buffered saline (pH 7.4) supplemented with 5 mM EDTA (ethylenediamine tetraacetic acid) were suspended human and rat SLC-1 expression CHO cells (1×10^8) and centrifuged. Homogenate buffer (10 ml, 10 mM NaHCO3, 5 mM EDTA, pH 7.5) was added to the pellets of the cells and, using Polytron Homogeniser, the mixture was homogenated. The supernatant obtained after centrifugation at 400×g for 15 min was further centrifuged at 100,000×g for 1 hr to give precipitate of the membrane fraction. […]
The antagonistic activity of the test compound was determined as follows. […] Liquid scintillator (50 ml) was added to the glass filter and the residual radioactivity was determined by a liquid scintillation counter. Binding inhibition (%)=(radioactivity upon addition of compound and MCH−radioactivity upon addition of DMSO solution)/(radioactivity upon addition of MCH−radioactivity upon addition of DMSO solution)×100
From the binding inhibition (%), IC50 of the compound was calculated.

Row | Structure (SMILES) | IC50 [nM]
1 | COc1ccc(-c2ccc(C(=O)Nc3ccc4cc(CN5CCCC5)cnc4c3)cn2)cc1 [Example 8, 6-(4-methoxyphenyl)-N-[3-(1-pyrrolidinylmethyl)-7-quinolinyl]nicotinamide] | 6

tested on: SD (Sprague Dawley) rats; assay: Evaluation of antidepressive action by forced swim test; assay type: in vivo, rat; details: 3 mg/kg body weight, oral, 30 minutes before test, five minutes measured, n=10; control group 30.86±8.71
Experimental: By performing a forced swim test using SD (Sprague Dawley) rats (seven-week-old, male, body weight 233.3–266.9 g, purchased from Japan Clea), the antidepressive action of the compound of the present invention was evaluated.
First, a suspension of the compound of Example 19 in 0.5% methyl cellulose was orally administered to SD rats (n=10) (compound dose: 3 mg/kg body weight). Thirty minutes later, the rats were placed in a pipe (diameter 21 cm, height 50 cm) made of Plexiglass (trade name, made by Rohm & Haas, U.S.A.) containing tap water (water temperature 25±2° C., 30 cm deep). Immobility time of the rats for five minutes thereafter was measured using a digital video camera.
In addition, 0.5% methyl cellulose suspension without the compound was orally administered to SD rats (n=10), and the rats were subjected the forced swim test in the same manner as above and taken as a control group.

Row | Structure (SMILES) | immobility time (seconds, mean±standard deviation) [s]
2 | Cc1c(NC(=O)c2ccc(-c3ccc(F)cc3)cc2)ccc2cc(CN3CCCC3)cnc12 [Example 19, 4′-fluoro-N-[8-methyl-3-(1-pyrrolidinylmethyl)-7-quinolinyl][1,1′-biphenyl]-4-carboxamide] | 15.93 ± 5.62

tested on: not given; assay: not given; details: not given

Row | Structure (SMILES) | melting point
3 | COc1ccc(-c2ccc(C(=O)Nc3ccc4cc(CN5CCCC5)cnc4c3)cn2)cc1 [Example 8, 6-(4-methoxyphenyl)-N-[3-(1-pyrrolidinylmethyl)-7-quinolinyl]nicotinamide] | 246 to 248 °C
4 | Cc1c(NC(=O)c2ccc(-c3ccc(F)cc3)cc2)ccc2cc(CN3CCCC3)cnc12 [Example 19, 4′-fluoro-N-[8-methyl-3-(1-pyrrolidinylmethyl)-7-quinolinyl][1,1′-biphenyl]-4-carboxamide] | 220 to 222 °C
5 | CCN(CC)C(=O)C1CCN(Cc2cnc3cc(NC(=O)c4ccc(-c5ccc(F)cc5)cc4)c(C)cc3c2)CC1 [Example 272, N,N-diethyl-1-[(7-{[(4′-fluoro-1,1′-biphenyl-4-yl)carbonyl]amino}-6-methyl-3-quinolinyl)methyl]piperidine-4-carboxamide] | 203 °C
6 | CCNC(=O)C1CCN(Cc2cnc3cc(NC(=O)c4ccc(-c5ccc(F)cc5)cc4)c(C)cc3c2)CC1 [Example 273, N-ethyl-1-[(7-{[(4′-fluoro-1,1′-biphenyl-4-yl)carbonyl]amino}-6-methyl-3-quinolinyl)methyl]piperidine-4-carboxamide] | 254 °C
7 | Cc1cc2cc(CN3CCC(C(=O)N(C)C)CC3)cnc2cc1NC(=O)c1ccc(-c2ccc(F)cc2)cc1 [Example 274, 1-[(7-{[(4′-fluoro-1,1′-biphenyl-4-yl)carbonyl]amino}-6-methyl-3-quinolinyl)methyl]-N,N-dimethylpiperidine-4-carboxamide] | 229 °C
8 | CNC(=O)C1CCN(Cc2cnc3cc(NC(=O)c4ccc(-c5ccc(F)cc5)cc4)c(C)cc3c2)CC1 [Example 275, 1-[(7-{[(4′-fluoro-1,1′-biphenyl-4-yl)carbonyl]amino}-6-methyl-3-quinolinyl)methyl]-N-methylpiperidine-4-carboxamide] | 257 °C
9 | Cc1cc2cc(CN3CCC(C(N)=O)CC3)cnc2cc1NC(=O)c1ccc(-c2ccc(F)cc2)cc1 [Example 276, 1-[(7-{[(4′-fluoro-1,1′-biphenyl-4-yl)carbonyl]amino}-6-methyl-3-quinolinyl)methyl]piperidine-4-carboxamide] | 265 °C
10 | Cc1ccc(-c2ccc(C(=O)Nc3ccc4cc(CN5CCCC5)cnc4c3)c(F)c2)cc1 [Example 277, 3-fluoro-4′-methyl-N-[3-(1-pyrrolidinylmethyl)-7-quinolinyl][1,1′-biphenyl]-4-carboxamide] | 173 °C
11 | Cc1ccc(-c2ccc(C(=O)Nc3ccc4cc(CN5CCCC5)cnc4c3F)c(F)c2)cc1 [Example 278, 3-fluoro-N-[8-fluoro-3-(1-pyrrolidinylmethyl)-7-quinolinyl]-4′-methyl[1,1′-biphenyl]-4-carboxamide] | 173 °C
12 | O=C(Nc1ccc2cc(CN3CCCC3)cnc2c1F)c1ccc(-c2ccc(Cl)cc2)cc1F [Example 279, 4′-chloro-3-fluoro-N-[8-fluoro-3-(1-pyrrolidinylmethyl)-7-quinolinyl][1,1′-biphenyl]-4-carboxamide] | 208 °C
13 | CN1CCc2nc3cc(NC(=O)c4ccc(-c5ccc(Cl)cc5)cc4)ccc3cc2C1 [Example 326, 4′-chloro-N-(2-methyl-1,2,3,4-tetrahydrobenzo[b][1,6]naphthyridin-7-yl)[1,1′-biphenyl]-4-carboxamide] | > 220 °C (dec.)
14 | CN1CCc2nc3cc(NC(=O)c4ccc(-c5ccc(Cl)cc5)cc4F)ccc3cc2C1 [Example 328, 4′-chloro-3-fluoro-N-(2-methyl-1,2,3,4-tetrahydrobenzo[b][1,6]naphthyridin-7-yl)[1,1′-biphenyl]-4-carboxamide] | > 220 °C (dec.)
15 | CCC(=O)Oc1ccc(C(=O)Nc2ccc3cc(CN4CCCC4)cnc3c2C)cc1 [Example 330, 4-({[8-methyl-3-(1-pyrrolidinylmethyl)-7-quinolinyl]amino}carbonyl)phenyl propionate] | 146 to 147 °C
16 | CCCC(=O)Oc1ccc(C(=O)Nc2ccc3cc(CN4CCCC4)cnc3c2C)cc1 [Example 331, 4-({[8-methyl-3-(1-pyrrolidinylmethyl)-7-quinolinyl]amino}carbonyl)phenyl butyrate] | 156 to 158 °C
